Source: patent US20240376154A1, “BIS-INTERCALATING PEPTIDES, CONJUGATES AND METHODS OF USE” (ZYMEWORKS BC INC., priority 2023, published 2024)

settings: amide bond; 32-membered ring

Question: For “Tert-butyl (4-nitrobenzyl) ((7R,11R,19aS,26R,30S,38aS)-11-((S)-sec-butyl)-30-isopropyl-12,15,31,34-tetramethyl-6,13,16,19,25,29,32,35,38-nonaoxotetratriacontahydro-2H,6H,10H-dipyrido[2,1-b1: 2′,1′-l][1]oxa[4,7,10,13,17,20,23,26,29]nonaazacyclodotriacontine-7,26-diyl)dicarbamate”, which ring closure, isolated yield is on record?
Answer: 72%

Question: With “Tert-butyl (4-nitrobenzyl) ((7R,11S,19aS,26R,30S,38aS)-11,30-diisopropyl-12,15,31,34-tetramethyl-6,13,16,19,25,29,32,35,38-nonaoxotetratriacontahydro-2H,6H,10H-dipyrido[2,1-b1: 2′,1′-l][1]oxa[4,7,10,13,17,20,23,26,29]nonaazacyclodotriacontine-7,26-diyl)dicarbamate” as the substance, how does the ring closure, isolated yield read?
Answer: 68%

Question: For “Benzyl tert-butyl ((7R,11S,19aS,26R,30S,38aS)-11,30-diisopropyl-12,31-dimethyl-6,10,13,19,25,29,32,38-octaoxodotriacontahydro-2H,6H,16H,25H-dipyrido[1,2-a1:1′,2′-k][1,17]dioxa[4,7,11,14,20,23,27,30]octaazacyclodotriacontine-7,26-diyl)dicarbamate”, which ring closure, isolated yield is on record?
Answer: 58%

Question: For “Benzyl tert-butyl ((7R,11S,19aS,26R,30S,38aS)-11-((S)-sec-butyl)-30-isopropyl-12,15,31,34-tetramethyl-6,10,13,16,19,25,29,32,35,38-decaoxohexatriacontahydro-2H,6H-dipyrido[1,2-a:1′,2′-q][1,4,7,10,13,17,20,23,26,29]decaazacyclodotriacontine-7,26-diyl)dicarbamate”, which ring closure, isolated yield is on record?
Answer: 75%

Question: For “Di-tert-butyl ((7R,11S,19aS,26R,30S,38aS)-11,30-diisopropyl-9,12,15,28,31,34-hexamethyl-6,10,13,16,19,25,29,32,35,38-decaoxohexatriacontahydro-2H,6H-dipyrido[1,2-a:1′,2′-q][1,4,7,10,13,17,20,23,26,29]decaazacyclodotriacontine-7,26-diyl)dicarbamate”, which ring closure, isolated yield is on record?
Answer: 65%

Question: For “Benzyl tert-butyl ((4aS,8R,14aS,23S,27R,33aS)-23-isopropyl-19,22,38-trimethyl-5,9,15,18,21,24,28,34,37,40-decaoxotetracontahydro-11H-tripyrido[1,2-a:1′,2′-j:1″,2″-q][1,4,7,10,13,17,20,23,26,29]decaazacyclodotriacontine-8,27-diyl)dicarbamate”, which ring closure, isolated yield is on record?
Answer: 64%

Question: Which ring closure, isolated yield does the source give for “Benzyl tert-butyl ((5aS,9R,15aS,24S,28R,34aS)-24-isopropyl-20,23,39-trimethyl-6,10,16,19,22,25,29,35,38,41-decaoxotetracontahydro-1H,12H-azepino[1,2-j]dipyrido[1,2-a:1′,2′-q][1,4,7,10,13,17,20,23,26,29]decaazacyclodotriacontine-9,28-diyl)dicarbamate” here?
Answer: 22%

Question: Which ring closure, isolated yield does the source give for “Benzyl tert-butyl ((7R,11S,19aS,26R,30S,38aS)-15,34-diethyl-11,30-diisopropyl-12,31-dimethyl-6,10,13,16,19,25,29,32,35,38-decaoxohexatriacontahydro-2H,6H-dipyrido[1,2-a:1′,2′-q][1,4,7,10,13,17,20,23,26,29]decaazacyclodotriacontine-7,26-diyl)dicarbamate” here?
Answer: 68%

Question: Which ring closure, isolated yield does the source give for “Bis(4-nitrobenzyl) ((7R,11S,19aS,26R,30S,38aS)-11,30-diisopropyl-12,15,31,34-tetramethyl-6,13,16,19,25,32,35,38-octaoxodotriacontahydro-2H,6H,10H,25H-dipyrido[2,1-b1: 2′,1′-l][1,17]dioxa[4,7,10,13,20,23,26,29]octaazacyclodotriacontine-7,26-diyl)dicarbamate” here?
Answer: 68%

Question: Which ring closure, isolated yield does the source give for “Di-tert-butyl ((7R,11S,19aS,26R,30S,38aS)-11,30-diisopropyl-12,15,31,34-tetramethyl-6,10,13,16,19,25,29,32,35,38-decaoxotetratriacontahydro-2H,6H,10H-dipyrido[2,1-b1: 2′,1′-l][1]oxa[4,7,10,13,17,20,23,26,29]nonaazacyclodotriacontine-7,26-diyl)dicarbamate” here?
Answer: 86%

Question: For “di-tert-butyl ((7R,11S,19aS,26R,30S,38aS)-11,30-diisopropyl-12,15,31,34-tetramethyl-6,10,13,16,19,25,29,32,35,38-decaoxohexatriacontahydro-2H,6H-dipyrido[1,2-a:1′,2′-q][1,4,7,10,13,17,20,23,26,29]decaazacyclodotriacontine-7,26-diyl)dicarbamate”, which ring closure, isolated yield is on record?
Answer: 34%

Question: For “Benzyl tert-butyl ((7R,8R,11S,19aS,26R,30S,38aS)-11,30-di((S)-sec-butyl)-8,12,15,31,34-pentamethyl-6,10,13,16,19,25,29,32,35,38-decaoxotetratriacontahydro-2H,6H,10H-dipyrido[2,1-b1: 2′,1′-l][1]oxa[4,7,10,13,17,20,23,26,29]nonaazacyclodotriacontine-7,26-diyl)dicarbamate”, which ring closure, isolated yield is on record?
Answer: 71%

Question: Which ring closure, isolated yield does the source give for “Benzyl tert-butyl ((7R,11S,19aS,26R,30S,38aS)-11,30-diisopropyl-12,15,31,34-tetramethyl-6,10,13,16,19,25,29,32,35,38-decaoxotetratriacontahydro-2H,6H,10H-dipyrido[2,1-b1: 2′,1′-l][1]oxa[4,7,10,13,17,20,23,26,29]nonaazacyclodotriacontine-7,26-diyl)dicarbamate” here?
Answer: 63%

Question: For “Benzyl tert-butyl ((7R,10aS,22aS,29R,32aS,44aS)-6,10,16,22,28,32,38,44-octaoxotetracontahydro-2H,19H-tetrapyrido[1,2-a1: 1′,2′-d: 1″,2″-k: 1′″,2′″-t][1,17]dioxa[4,7,11,14,20,23,27,30]octaazacyclodotriacontine-7,29-diyl)dicarbamate”, which ring closure, isolated yield is on record?
Answer: 44%

Question: Which ring closure, isolated yield does the source give for “Benzyl tert-butyl ((7R,11S,19aS,26R,30S,38aS)-11,30-diisopropyl-12,31-dimethyl-6,10,13,16,19,25,29,32,35,38-decaoxo-15,34-dipropylhexatriacontahydro-2H,6H-dipyrido[1,2-a:1′,2′-q][1,4,7,10,13,17,20,23,26,29]decaazacyclodotriacontine-7,26-diyl)dicarbamate” here?
Answer: 85%

Question: Which ring closure, isolated yield does the source give for “Benzyl tert-butyl ((7R,11S,19aS,26R,30S,38aS)-11,30-dicyclohexyl-12,15,31,34-tetramethyl-6,10,13,16,19,25,29,32,35,38-decaoxohexatriacontahydro-2H,6H-dipyrido[1,2-a:1′,2′-q][1,4,7,10,13,17,20,23,26,29]decaazacyclodotriacontine-7,26-diyl)dicarbamate” here?
Answer: 72%

Question: For “Dibenzyl ((7R,11S,19aS,26R,30S,38aS)-11-((R)-1-(tert-butoxy)ethyl)-30-isopropyl-12,15,31,34-tetramethyl-6,10,13,16,19,25,29,32,35,38-decaoxohexatriacontahydro-2H,6H-dipyrido[1,2-a:1′,2′-q][1,4,7,10,13,17,20,23,26,29]decaazacyclodotriacontine-7,26-diyl)dicarbamate”, which ring closure, isolated yield is on record?
Answer: 91%
